Publication PMC12785453, “Oral Fluid Concentrations and Pharmacological Effects of Clephedrone and Methylone in Humans” (International Journal of Molecular Sciences, 2025)

System: healthy volunteers
Assay: Subjective effects, visual analog scales (VAS), clephedrone study
Format: in vivo, humans
Source text: The study evaluating the acute effects of clephedrone was designed as a non-controlled, prospective, observational, and naturalistic study. The procedures and evaluations included in this study have been described in previous studies evaluating other synthetic cathinones (mephedrone, methylone, alpha-PVP, NEP, HEXEN), phenethylamines (2C-B and 2C-E), or synthetic cannabinoids (JWH-122, JWH-210, UR-144).
This study consisted of one experimental session in which participants (N = 8; 6 women, 2 men) selected their oral dose of clephedrone based on their drug use experience and preferences. According to their dose selection, 3 women and 1 man ingested 100 mg of clephedrone, while the remaining 3 women and 1 man opted for a higher dose of 150 mg. […] Participants were recruited by word of mouth by the harm reduction organization Energy Control in Barcelona (Associació Benestar i Desenvolupament, ABD).
Subjective effects were evaluated with visual analog scales (VAS), the short form of the Addiction Research Center Inventory (ARCI), and the Evaluation of Subjective Effects of Substances with Abuse Potential questionnaire (VESSPA-SSE). In addition, the Sensitivity to Drug Reinforcement Questionnaire (SDRQ) and a pharmacological identification class questionnaire were used in the controlled study administering methylone.
VAS encompassed several adjectives that participants had to rate from “not at all” (0 mm) to “extremely” (100 mm) according to their sensations. This scale included 28 items: intensity, stimulated, high, good effects, bad effects, liking, changes in distances, changes in colors, changes in shapes, changes in lights, hallucinations (seeing lights or spots), hallucinations (seeing things, animals, insects, or people), changes in hearing, hallucinations (hearing sounds or voices), drowsiness, concentration, dizziness, confusion, different or changed body feeling, unreal body feeling, different surroundings, unreal surroundings, open, trust, feeling close to others, I want to be with other people, I want to hug someone, sexual desire, and sexual arousal.
Participants included in the naturalistic clephedrone study completed VAS at baseline, 0.50, 1, 1.5, 2, 3, 4, and 5 h, and ARCI and VESSPA at baseline, 1, 2, 3, 4, and 5 h after self-administering clephedrone. In the controlled study, VAS was performed at baseline and 0.25, 0.50, 0.75, 1, 1.5, 2, 3, 4, 6, 8, 10, and 24 h, and ARCI and VESSPA at baseline and 1, 2, 3, 4, 6, 8, and 10 h after administering methylone. Participants completed SDRQ and VAS sexual desire and arousal at baseline, 1 and 10 h, and the pharmacological class identification questionnaire at 8 h.
For statistical analysis, values of physiological (SBP, DBP, HR, and T) and subjective effects (VAS, ARCI, and VESSPA-SSE) were baseline–adjusted. Maximum effects (Emax) and the time needed to reach maximum effects (Tmax) were determined, and the area under the curve up to 5 h (AUC0–5h) for clephedrone and up to 6 h (AUC0–6h) for methylone was calculated using the trapezoidal rule. Emax and AUC values are presented as mean ± standard deviation, whereas Tmax is presented in median (range).
To find possible significant changes through the time course compared to baseline, a Dunnett multiple comparison test was carried out to compare each time point with baseline in both drug conditions. For clephedrone the comparisons were 0–0.5 h, 0–1 h, 0–1.5 h, 0–2 h, 0–3 h, 0–4 h and 0–5 h, and for methylone this analysis included 0–0.25 h, 0–0.5 h, 0–0.75 h, 0–1 h, 0–1.5 h, 0–2 h, 0–3 h, 0–4 h and 0–6 h. Given their different study designs, no comparative analysis between the time courses of both synthetic cathinones was conducted.

[1] = 100 or 150 mg oral, n=8, listed as clephedrone
[2] = AUC0–5h, 100 or 150 mg oral, n=8

`CNC(C)C(=O)c1ccc(Cl)cc1` (centres unmarked) [Clephedrone, 4-chloromethcathinone] was tested, and the Hallucinogenic effects (100 or 150 mg oral) was “did not evidence any hallucinogenic effects”, the “Tmax of the high-scoring VAS subjective effects” value (100 or 150 mg oral) was 3 h and the “VAS Bad effects Emax” value (100 or 150 mg oral, n=8) was 0.38 ± 0.74 mm. For the same molecule, the “VAS Changes in colors Emax” value (100 or 150 mg oral, n=8) was 1.13 ± 2.80 mm, the “VAS Changes in colors Tmax” value (100 or 150 mg oral, n=8) was 0.0 (0.0–3.0) h and the “VAS Changes in distances Emax” value (100 or 150 mg oral, n=8) was 1.88 ± 4.55 mm. For the same molecule, the “VAS Changes in distances Tmax” value (100 or 150 mg oral, n=8) was 0.0 (0.0–2.0) h, the “VAS Changes in hearing Emax” value (100 or 150 mg oral, n=8) was 8.75 ± 16.24 mm and the “VAS Changes in hearing Tmax” value (100 or 150 mg oral, n=8) was 0.0 (0.0–4.0) h. The “VAS Changes in lights Emax” value (100 or 150 mg oral, n=8) was 4.75 ± 9.79 mm, the “VAS Changes in lights Tmax” value (100 or 150 mg oral, n=8) was 0.0 (0.0–4.0) h and the “VAS Concentration Emax” value (100 or 150 mg oral, n=8) was 22.13 ± 16.65 mm. The “VAS Confusion Emax” value (100 or 150 mg oral, n=8) was 3.00 ± 3.82 mm, the “VAS Different or changed body feeling Emax” value (100 or 150 mg oral, n=8) was 39.63 ± 22.15 mm and the “VAS Different surroundings Emax” value (100 or 150 mg oral, n=8) was 13.75 ± 23.50 mm. The “VAS Dizziness Emax” value (100 or 150 mg oral, n=8) was 1.13 ± 1.81 mm, the “VAS Drowsiness Emax” value (100 or 150 mg oral, n=8) was 14.25 ± 22.86 mm and the “VAS Feeling close to others Emax” value (100 or 150 mg oral, n=8) was 53.38 ± 13.79 mm. The “VAS Good effects Emax” value (100 or 150 mg oral, n=8) was 58.50 ± 20.46 mm, the “VAS High Emax” value (100 or 150 mg oral, n=8) was 54.25 ± 20.19 mm and the “VAS I want to be with other people Emax” value (100 or 150 mg oral, n=8) was 34.63 ± 28.16 mm. For the same molecule, the “VAS I want to hug someone Emax” value (100 or 150 mg oral, n=8) was 37.63 ± 28.01 mm, the “VAS Intensity Emax” value (100 or 150 mg oral, n=8) was 49.13 ± 17.18 mm and the “VAS Liking Emax” value (100 or 150 mg oral, n=8) was 59.00 ± 18.56 mm. The “VAS Open Emax” value (100 or 150 mg oral, n=8) was 49.25 ± 18.78 mm, the “VAS Sexual arousal Emax” value (100 or 150 mg oral, n=8) was 20.13 ± 18.70 mm and the “VAS Sexual desire Emax” value (100 or 150 mg oral, n=8) was 20.63 ± 19.60 mm. For the same molecule, the “VAS Stimulated Emax” value (100 or 150 mg oral, n=8) was 48.75 ± 14.47 mm, the “VAS Trust Emax” value (100 or 150 mg oral, n=8) was 53.75 ± 20.62 mm and the “VAS Unreal body feeling Emax” value (100 or 150 mg oral, n=8) was 2.13 ± 4.16 mm. The “VAS Unreal surroundings Emax” value (100 or 150 mg oral, n=8) was 1.50 ± 4.24 mm, the “VAS Concentration Emax” value [1] was “exceeding 20 mm” and the “VAS Different or changed body feeling Emax” value [1] was over 30 mm. The “VAS Feeling close to others Emax” value [1] was “exceeding 40 mm”, the “VAS Good effects Emax” value [1] was “exceeding 40 mm” and the “VAS High Emax” value [1] was “exceeding 40 mm”. For the same molecule, the “VAS I want to be with other people Emax” value [1] was over 30 mm, the “VAS I want to hug someone Emax” value [1] was over 30 mm and the “VAS Intensity Emax” value [1] was “exceeding 40 mm”. The “VAS Liking Emax” value [1] was “exceeding 40 mm”, the “VAS Open Emax” value [1] was “exceeding 40 mm” and the “VAS Sexual arousal Emax” value [1] was “exceeding 20 mm”. The “VAS Sexual desire Emax” value [1] was “exceeding 20 mm”, the “VAS Stimulated Emax” value [1] was “exceeding 40 mm” and the “VAS Trust Emax” value [1] was “exceeding 40 mm”. For the same molecule, the “VAS Bad effects AUC0-5/6 h” value [2] was 0.38 ± 0.74 mm·h, the “VAS Changes in colors AUC0-5/6 h” value [2] was 1.75 ± 4.75 mm·h and the “VAS Changes in distances AUC0-5/6 h” value [2] was 1.53 ± 3.76 mm·h. The “VAS Changes in hearing AUC0-5/6 h” value [2] was 12.44 ± 23.03 mm·h, the “VAS Changes in lights AUC0-5/6 h” value [2] was 6.41 ± 14.74 mm·h and the “VAS Concentration AUC0-5/6 h” value [2] was 45.34 ± 33.03 mm·h. The “VAS Confusion AUC0-5/6 h” value [2] was 3.72 ± 5.72 mm·h, the “VAS Different or changed body feeling AUC0-5/6 h” value [2] was 87.38 ± 52.74 mm·h and the “VAS Different surroundings AUC0-5/6 h” value [2] was 25.56 ± 52.75 mm·h. For the same molecule, the “VAS Dizziness AUC0-5/6 h” value [2] was 0.97 ± 1.49 mm·h, the “VAS Drowsiness AUC0-5/6 h” value [2] was 13.25 ± 20.39 mm·h and the “VAS Feeling close to others AUC0-5/6 h” value [2] was 116.56 ± 42.59 mm·h. For the same molecule, the “VAS Good effects AUC0-5/6 h” value [2] was 129.66 ± 50.22 mm·h, the “VAS High AUC0-5/6 h” value [2] was 118.63 ± 44.24 mm·h and the “VAS I want to be with other people AUC0-5/6 h” value [2] was 62.94 ± 49.65 mm·h. The “VAS I want to hug someone AUC0-5/6 h” value [2] was 80.38 ± 74.45 mm·h, the “VAS Intensity AUC0-5/6 h” value [2] was 112.03 ± 34.05 mm·h and the “VAS Liking AUC0-5/6 h” value [2] was 134.09 ± 48.13 mm·h. The “VAS Open AUC0-5/6 h” value [2] was 112.56 ± 51.16 mm·h, the “VAS Sexual arousal AUC0-5/6 h” value [2] was 44.44 ± 49.02 mm·h and the “VAS Sexual desire AUC0-5/6 h” value [2] was 44.69 ± 48.58 mm·h. The “VAS Stimulated AUC0-5/6 h” value [2] was 104.81 ± 29.68 mm·h, the “VAS Trust AUC0-5/6 h” value [2] was 126.91 ± 60.79 mm·h and the “VAS Unreal body feeling AUC0-5/6 h” value [2] was 3.13 ± 6.75 mm·h. For the same molecule, the “VAS Unreal surroundings AUC0-5/6 h” value [2] was 1.50 ± 4.24 mm·h and the “Time of peak pharmacological effects” value (oral) was 3 h.
